inhibition, Flu intensity and Activity data for one compound are collected here from ChEMBL document CHEMBL6103543, “Exploring the rhodanine universe: Design and synthesis of fluorescent rhodanine-based derivatives as anti-fibrillar and anti-oligomer agents against α-synuclein and 2N4R tau” (Bioorg Med Chem, 2024).

Data set [1] concerns the target T1, Alpha-synuclein (Homo sapiens, UniProt P37840). Briefly: Inhibition of alpha-syn inclusion formation in human M17D cells expressing doxycyclin-inducible alpha-syn-S3K::YFP inclusion-prone fusion protein assessed as reduction in inclusions at 1.25 to 5 uM treated with compound starting from 24 hrs post plating followed by doxycyclin addition at 48 hrs and measured 96 hrs post plating by Incucyte-based analysis. The data set is classed as cell-based. The conditions noted are these: dose 1.25-5 µM, time 72.0 hrs.

Data set [2] deals with T1, Alpha-synuclein. Briefly: Inhibition of recombinant alpha-synuclein (unknown origin) fibril formation assessed as thioflavin T fluorescence intensity at 100 uM measured every 20 mins by Thioflavin T fluorescence assay (reference value: 100 %).
Data set [3] has as its target T1, Alpha-synuclein. Description: Inhibition of alpha-synuclein (unknown origin) oligomer formation assessed as reduction in cross linking at 100 uM preincubated with compound followed by Ru(BPY3) addition and measured after 1 sec light irradiation by coomassie blue staining based PICUP assay.
Data set [4] in a line: Cytotoxicity against human M17D cells expressing doxycyclin-inducible alpha-syn-S3K::YFP inclusion-prone fusion protein assessed as reduction in cell confluency at 1.25 to 5 uM treated with compound starting from 24 hrs post plating followed by doxycyclin addition at 48 hrs and measured 96 hrs post plating by Incucyte-based analysis. In kind it is toxicity. Particulars: 72 h, dose 1.25-5 µM.

Structures are written as SMILES. Calls of active or inactive are those of the source. No cut-off for these calls is given here.

On to `O=C(O)c1ccc(N2C(=O)/C(=C/c3ccc4ccccc4n3)SC2=S)cc1O`, for which the inhibition entry at Alpha-synuclein [1] and at Alpha-synuclein [3] was “inactive” each time. Further, on Alpha-synuclein [2], the Flu intensity was above 100%. In addition, in data set [4], the Activity entry is reported as “Non-toxic”.
